Earlier results, collected in patent publication US20250144071A1, “METHOD FOR PRODUCING ELLAGIC ACID-CONTAINING COMPOSITION AND ELLAGIC ACID-CONTAINING COMPOSITION” (SUMITOMO CHEMICAL COMPANY, LIMITED, priority 2022, published 2025).

Solubility of ellagic acid in water: about 20 μg/mL
Compound: O=c1oc2c(O)c(O)cc3c(=O)oc4c(O)c(O)cc1c4c23 [ellagic acid]
